Data: US8309790B2, “Animal models for demyelination disorders” (University of Chicago, priority 2005, dated 2012)
Where “and” joins values, the source holds several entries; their conditions need not be identical. Identical values can stand only once.

Assays:
Type in all cases: in vivo
[1] = test system: ER stress markers BIP, CHOP, p-eIF-2α; assay: ER stress markers in the corpus callosum of cuprizone treated mice expressing IFN-γ
Experimental: Repression of remyelination by IFN-γ is associated with ER stress. […] To determine whether IFN-γ interferes with endoplasmic reticulum (ER) function in remyelinating oligodendrocytes, the expression of ER stress markers was monitored in the corpus callosum of mice expressing IFN-γ. The study was performed using the transgenic mice described in Example 1.
The level of mRNA encoding ER stress associated genes binding immunoglobulin protein/78 KDa glucose regulated protein (BIP/GRP78) and the CAATT enhancer-binding protein homologous protein/growth and DNA damage protein 153 (CHOP/GADD153), was determined using real time PCR, as described in Example 1 in the corpus callosum of the cuprizone treated mice of Example 1. The probes, sense and antisense primers that were used were: […]
The level of phosphorylated eIF-2α, which inhibits nucleotide exchange on the eIF-2 complex and attenuates most protein synthesis, was analyzed by Western blot, and the expression was colocalized by immunostaining CC1 antibodies as described above. Western blot analysis was performed as follows. The corpus callosum from 3 mice was rinsed in ice cold phosphate-buffered saline (PBS) and pooled, and immediately homogenized in 5 volumes of Triton X-100 buffer (20 mM HEPES pH 7.5, 150 mM NaCl, 1% Triton X-100, 10% glycerol, 1 mM EDTA, 10 mM tetrasodium pyrophosphate, 100 mM NaF, 17.5 mM β-glycerophosphate, 10 mM phenylmethylsulfonyl fluoride, 15 μg/ml aprotonin, and 6 μg/ml pepstatin A) using a motorized homogenizer. After incubation on ice for 15 min, the extracts were cleared by centrifugation at 14,000 rpm twice for 30 min each. The protein content of each extract was determined by protein assay (Bio-Rad). The extracts (40 μg) were separated by sodium dodecyl sulfate-polyacrylamide gel electrophoresis and transferred to nitrocellulose. […] The following primary antibodies were used: anti-eIF-2α (1:500; Santa Cruz, Santa Cruz, Calif.), anti-p-eIF-2α (1:1000, Cell signaling Technology), anti-CHOP (1:500; Santa Cruz) and anti-actin (1:1000; Sigma, St Louis, Mo.).

[2] = test system: CNS of 14-day-old double transgenic mice; assay: Ectopic expression of IFN-γ in the CNS during development (released from doxycycline at E14), PERK+/+ or PERK+/− background
Description: To study the effect of INF-γ on the myelination of oligodendrocytes during mouse development, transgenic mice that allow for temporally regulated delivery of IFN-γ to the CNS using the tetracycline (tet) controllable system (Lin, et al. (2004) J. Neurosci. 24: 10074-10083) were generated. To drive tTA expression in astrocytes, the transcriptional regulatory region of the glial fibrillary acidic protein (GFAP) gene was chosen (Brenner, et al. (1994) J. Neurosci. 14: 1030-1037). GFAP/tTA mice were mated with TRE/IFN-γ mice to produce animals hemizygous for both transgenes. When these mice are maintained on doxycycline (DOX+), expression of the IFN-γ transgene is repressed (FIG. 10A); when the double transgenic mice are released from doxycycline (DOX−) INF-γ is expressed. For the purpose of these experiments, mice received doxycycline up to day 14 of development (E14), at which time the experimental animals (DOX−) stopped receiving doxycycline, while the control animals (DOX+) were continuosly fed the dug. The mRNA for IFN-γ could be detected in the DOX− mice as early as 10 days after birth (data not shown).
Real time PCR analysis was performed to determine the levels of expression of INF-γ, MHC-1, BIP, CHOP, and caspase 12. The primers for the PCR reactions for BIP, CHP and caspase 12 are given in example 1. The sense and antisense primers for INF-γ were […] (SEQ ID NO: 39) and […] (SEQ ID NO: 40), respectively; and the sense and antisense primers for MHC-1 were MHC-I sense primer: ATTCCCCAAAGGCCCATGT (SEQ ID NO: 1); and MHC-I antisense primer: […] (SEQ ID NO: 2).
Western blot analysis was performed on the CNS of 14 day old mice to determine the expression of caspase-12 as described in Example 6.
Brain and spinal cord tissue were analyzed using immunohistochemical methods as follows. Anesthetized mice were perfused through the left cardiac ventricle with 4% paraformaldehyde in 0.1M PBS. The half-saggital brains and transcervical spinal cord were removed, postfixed with paraformaldehyde, cryopreserved in 30% sucrose, embedded in OCT and frozen on dry ice. Frozen sections were cut in a cryostat at a thickness of 10 μm. Coronal sections at the fornix region of the corpus callosum corresponding to Sidman sections 241-251 were selected for use, and all comparative analyses were restricted to midline corpus callosum (Sidman, et al. (1971) Atlas of the Mouse Brain and Spinal Cord (Harvard Univ. Press, Cambridge, Mass.). For immunohistochemistry, frozen sections were treated with −20° C. acetone, blocked with PBS containing 10% NGS and 0.1% Triton X-100 and incubated overnight with the primary antibody diluted in blocking solution. Appropriate fluorochrome- or enzyme-labeled secondary antibodies (Vector Laboratories, Burlingame, Calif.) were used for detection. An antibody against CC1 (APC7, 1:50; EMD Biosciences, Inc., La Jolla, Calif.) was used as a marker for mature oligodendrocytes. Antibody against MBP (1:1000; Stemberger Monoclonals, Lutherville, […].) was used to verify the degree of myelination. Antibody against active-caspase-3 (1:50, Cell signaling Technology, Beverly, Mass.) was used as a marker for apoptotic cells. Fluorescent stained sections were mounted with Vectashield mounting medium with DAPI (Vector Laboratories) and visualized with a Zeiss Axioplan fluorescence microscope. Images were captured using a Photometrics PXL CCD camera connected to an Apple Macintosh computer using the Open Lab software suite. Immunopositive cells were quantified by counting positive cells within the median of the corpus callosum, confined to an area of 0.04 mm^2. Only those cells with nuclei observable by DAPI staining were counted. Each MBP immunostaining slide was scored on a scale of zero to four. A score of zero indicates complete demyelination, and a score of four indicates normal myelination in the corpus callosum of adult mice. […]

[3] = test system: mice with EAE; assay: EAE, CNS delivery of INF-γ at the onset of EAE, double (PERK+/+) and triple (PERK+/−) mice; conditions: for Mean of maximum clinical score (mean ± S.D.): 0-5 point scale; for Day of onset of disease (PID: postimmunization day): n = 25; for expression of iNOs, TNF-a, IL-2, IL-12 and IL-10 in the spinal cord: PID 14 (EAE onset), DOX− vs DOX+
[4] = corpus callosum of DOX− mice, Western blot
[5] = CNS, PND 14, DOX− released at E14, real-time PCR

In the case of interferon-γ [IFN-γ], the “level of CHOP protein” value [1, 4] is reported as “approximately 1.7 fold”, the “level of phosphorylated eIF-2α (p-eIF-2α)” value [1, 4] is reported as “approximately 1.8 fold” and the “level of mRNA for BIP and CHOP” value ([1]; corpus callosum, DOX− compared to control DOX+, real time PCR) is reported as “approximately 2 fold”. For the same substance, the caspase-12 expression ([2]; CNS, PND 14, DOX− released at E14) was “strongly enhanced”, the BIP expression [2, 5] was “approximately 1.6 times the control levels” and the CHOP expression [2, 5] was roughly 2 times the control levels. For the same substance, the “mice that experienced tonic seizures” value ([2]; E14 DOX− PERK+/−) was “approximately two-thirds”, the “decrease of oligodendrocyte numbers in the spinal cord” value ([2]; IFN-γ expressing mice on a PERK+/− background, 14-day-old, CC1) was “more than 50%” and the “unmyelinated axons in the spinal cord” value ([2]; PERK+/− mice that express IFN-γ in the CNS, 14-day-old) was 81%±14.9%. The “number of TUNEL positive oligodendrocytes in the cervical spinal cord, PERK+/− relative to wild-type background” value ([2]; released from doxycycline at E14) was 2.5 times, the “mice that died by post natal day (PND) 27” value ([2]; released from doxycycline at E14, PERK+/− background) was “more than 90%” and the survival ([2]; released from doxycycline at E14, wild-type background) was “normal survival”. For the same substance, the “unmyelinated axons in the spinal cord” value ([2]; wild-type background, released from doxycycline at E14) was 30%±12.9%, the “Mean of maximum clinical score (mean ± S.D.)” value ([3]; DOX− double mice) was 1.63 ± 0.51 and the “MBP mRNA in the spinal cord compared to age-matched naïve mice” value ([3]; DOX− double mice, PID17, real-time PCR) was “not significantly decreased”. For the same substance, the “Day of onset of disease (PID: postimmunization day)” value ([3]; DOX− double mice) was 14.7 ± 1.4, the “Incidence of hind limb paralysis” value ([3]; DOX− double mice, listed as INF-γ) was 2 of 25 and 2/25 and the “Incidence of hind limb paralysis” value ([3]; DOX− triple mice (PERK+/−)) was 18/25. The “Mean of maximum clinical score (mean ± S.D.)” value ([3]; DOX− triple mice (PERK+/−)) was 2.71 ± 1.11, the “Day of onset of disease (PID: postimmunization day)” value ([3]; DOX− triple mice (PERK+/−)) was 13.6 ± 0.8 and the “expression of iNOs, TNF-a, IL-2, IL-12 and IL-10 in the spinal cord” value [3] was “strongly enhanced”. The “expression of iNOs, TNF-a, IL-2, IL-12 and IL-10 in the spinal cord” value ([3]; listed as INF-γ) was “increased”, the “expression of IL-2 and IL-5 in the spinal cord” value ([3]; PID 14, DOX− vs DOX+) was “did not affect” and the “CD3 positive T cell infiltration in the spinal cord” value ([3]; at EAE onset) was “did not significantly affect”. The “CD11b positive monocyte infiltration in the spinal cord” value ([3]; at EAE onset) was “increased”, the “CD11b positive monocyte infiltration” value ([3]; at the peak of disease) was “did not change” and the “expression of iNOs or TNF-γ” value ([3]; at the peak of disease) was “did not significantly affect”. For the same substance, the EAE disease course ([3]; mice heterozygous for the PERK mutation) was “did not ameliorate” and the “PERK-eIF2α pathway in oligodendrocytes (p-PERK, p-eIF2α, CC1 colocalization)” value ([3]; spinal cord, EAE onset) was “markedly activated”.
